Converted amounts (≈) assume the structure as drawn. Like-named read-outs stand apart in the source and are kept apart here.
Experiments:
Experiment in all cases: In vitro antibacterial activity, agar plate dilution method (MIC)
Ps.cepacia 23 = assay type: cell-based, Pseudomonas cepacia; settings: Burkholderia cepacia; Ps.cepacia 23; Mueller Hinton agar, inoculum 10⁶ CFU/ml, 37°C, 16 hours; read-out: Minimum Inhibitory Concentration (MIC: µg/ml)
Experimental: (§1) The in vitro antibacterial activities of the compounds of the present invention against various microorganisms, were measured by the following agar plate dilution method. One platinum loopfull of each test microorganism incubated overnight in Mueller Hinton broth, was inoculated to Mueller Hinton agar (inoculum size: l0⁶ CFU/ml). Such culture media containing various antibiotics in various concentrations were prepared. After incubation at 37°C for l6 hours, the minimum inhibitory concentrations (MIC: µg/ml) were measured. As comparative compounds, Cefotaxime, Ceftazidime and the compounds of Reference Examples l to 4 were employed.

S.aureus BB5703 = assay type: cell-based; settings: Staphylococcus aureus; S.aureus BB5703; Mueller Hinton agar, inoculum 10⁶ CFU/ml, 37°C, 16 hours; read-out: Minimum Inhibitory Concentration (MIC: µg/ml)
Experimental: as §1

E.cloacae 963 = assay type: cell-based; settings: Enterobacter cloacae; E.cloacae 963; Mueller Hinton agar, inoculum 10⁶ CFU/ml, 37°C, 16 hours; read-out: Minimum Inhibitory Concentration (MIC: µg/ml)
Experimental: as §1

S.marcescens No. 16-2 = assay type: cell-based; settings: Serratia marcescens, NO.162; S.marcescens No. 16-2 (β-Lactamase-producing strain); Mueller Hinton agar, inoculum 10⁶ CFU/ml, 37°C, 16 hours; read-out: Minimum Inhibitory Concentration (MIC: µg/ml)
Experimental: as §1

M.morganii GN5407 = assay type: cell-based; settings: Morganella morganii; M.morganii GN5407 (β-Lactamase-producing strain); Mueller Hinton agar, inoculum 10⁶ CFU/ml, 37°C, 16 hours; read-out: Minimum Inhibitory Concentration (MIC: µg/ml)
Experimental: as §1

E.cloacae Nek 39 = assay type: cell-based; settings: Enterobacter cloacae, NEK39; E.cloacae Nek 39 (β-Lactamase-producing strain); Mueller Hinton agar, inoculum 10⁶ CFU/ml, 37°C, 16 hours; read-out: Minimum Inhibitory Concentration (MIC: µg/ml)
Experimental: as §1

S.aureus JS1 = assay type: cell-based; settings: Staphylococcus aureus; S.aureus JS1 (β-Lactamase-producing strain); Mueller Hinton agar, inoculum 10⁶ CFU/ml, 37°C, 16 hours; read-out: Minimum Inhibitory Concentration (MIC: µg/ml)
Experimental: as §1

K.pneumoniae No. 42 = assay type: cell-based; settings: Klebsiella pneumoniae; K.pneumoniae No. 42 (β-Lactamase-producing strain); Mueller Hinton agar, inoculum 10⁶ CFU/ml, 37°C, 16 hours; read-out: Minimum Inhibitory Concentration (MIC: µg/ml)
Experimental: as §1

K.pneumoniae PCI-602 = assay type: cell-based; settings: Klebsiella pneumoniae, PCI602; K.pneumoniae PCI-602; Mueller Hinton agar, inoculum 10⁶ CFU/ml, 37°C, 16 hours; read-out: Minimum Inhibitory Concentration (MIC: µg/ml)
Experimental: as §1

Ps.aeruginosa AKR17 = assay type: cell-based; settings: Pseudomonas aeruginosa; Ps.aeruginosa AKR17; Mueller Hinton agar, inoculum 10⁶ CFU/ml, 37°C, 16 hours; read-out: Minimum Inhibitory Concentration (MIC: µg/ml)
Experimental: as §1

E.coli NIHJ JC2 = assay type: cell-based; settings: Escherichia coli, NIHJJC2; E.coli NIHJ JC2; Mueller Hinton agar, inoculum 10⁶ CFU/ml, 37°C, 16 hours; read-out: Minimum Inhibitory Concentration (MIC: µg/ml)
Experimental: as §1

A.calcoaceticus No. 4 = assay type: cell-based; settings: Acinetobacter calcoaceticus; A.calcoaceticus No. 4; Mueller Hinton agar, inoculum 10⁶ CFU/ml, 37°C, 16 hours; read-out: Minimum Inhibitory Concentration (MIC: µg/ml)
Experimental: as §1

E.coli CSH2 (RK1) = assay type: cell-based; settings: Escherichia coli, 16 h, read-out: Minimum Inhibitory Concentration (MIC: µg/ml)
Experimental: as §1

Ps.aeruginosa AK 109 = assay type: cell-based; settings: Pseudomonas aeruginosa, AK109; Ps.aeruginosa AK 109; Mueller Hinton agar, inoculum 10⁶ CFU/ml, 37°C, 16 hours; read-out: Minimum Inhibitory Concentration (MIC: µg/ml)
Experimental: as §1

C.freundii GN346 = assay type: cell-based; settings: Citrobacter freundii; C.freundii GN346 (β-Lactamase-producing strain); Mueller Hinton agar, inoculum 10⁶ CFU/ml, 37°C, 16 hours; read-out: Minimum Inhibitory Concentration (MIC: µg/ml)
Experimental: as §1

E.coli CSH(RE45) = assay type: cell-based; settings: Escherichia coli, 16 h, read-out: Minimum Inhibitory Concentration (MIC: µg/ml)
Experimental: as §1

S.aureus 209P NIHJ-JC1 = assay type: cell-based; settings: Staphylococcus aureus; S.aureus 209P NIHJ-JC1; Mueller Hinton agar, inoculum 10⁶ CFU/ml, 37°C, 16 hours; read-out: Minimum Inhibitory Concentration (MIC: µg/ml)
Experimental: as §1

K.oxytoca GN10650 = assay type: cell-based; settings: Klebsiella oxytoca, read-out: Minimum Inhibitory Concentration (MIC: µg/ml)
Experimental: as §1

P.vulgaris HX-19 = assay type: cell-based; settings: Proteus vulgaris, HX19; P.vulgaris HX-19; Mueller Hinton agar, inoculum 10⁶ CFU/ml, 37°C, 16 hours; read-out: Minimum Inhibitory Concentration (MIC: µg/ml)
Experimental: as §1

Ps.aeruginosa IFO3445 = assay type: cell-based; settings: Pseudomonas aeruginosa; Ps.aeruginosa IFO3445; Mueller Hinton agar, inoculum 10⁶ CFU/ml, 37°C, 16 hours; read-out: Minimum Inhibitory Concentration (MIC: µg/ml)
Experimental: as §1

E.coli GN5482 = assay type: cell-based; settings: Escherichia coli; E.coli GN5482 (β-Lactamase-producing strain); Mueller Hinton agar, inoculum 10⁶ CFU/ml, 37°C, 16 hours; read-out: Minimum Inhibitory Concentration (MIC: µg/ml)
Experimental: as §1

S.epidermidis IAM12012 = assay type: cell-based; settings: Staphylococcus epidermidis; S.epidermidis IAM12012; Mueller Hinton agar, inoculum 10⁶ CFU/ml, 37°C, 16 hours; read-out: Minimum Inhibitory Concentration (MIC: µg/ml)
Experimental: as §1

M.luteus ATCC9341 = assay type: cell-based; settings: Micrococcus luteus; M.luteus ATCC9341; Mueller Hinton agar, inoculum 10⁶ CFU/ml, 37°C, 16 hours; read-out: Minimum Inhibitory Concentration (MIC: µg/ml)
Experimental: as §1

S.marcescens IAM 1184 = assay type: cell-based; settings: Serratia marcescens, read-out: Minimum Inhibitory Concentration (MIC: µg/ml)
Experimental: as §1

C.freundii GN346/16 = assay type: cell-based; settings: Citrobacter freundii; C.freundii GN346/16; Mueller Hinton agar, inoculum 10⁶ CFU/ml, 37°C, 16 hours; read-out: Minimum Inhibitory Concentration (MIC: µg/ml)
Experimental: as §1

P.vulgaris No. 33 = assay type: cell-based; settings: Proteus vulgaris, read-out: Minimum Inhibitory Concentration (MIC: µg/ml)
Experimental: as §1

Ps.maltophilia GN 12873 = assay type: cell-based, Pseudomonas maltophilia; settings: Stenotrophomonas maltophilia, GN12873; Ps.maltophilia GN 12873 (β-Lactamase-producing strain); Mueller Hinton agar, inoculum 10⁶ CFU/ml, 37°C, 16 hours; read-out: Minimum Inhibitory Concentration (MIC: µg/ml)
Experimental: as §1

C=CCON=C(C(=O)NC1C(=O)N2C(C(=O)[O-])=C(C[n+]3ccc4cc(O)c(O)cc4c3)CS[C@H]12)c1csc(N)n1 (stereo partly drawn) [Ex. 3, 7-[2-allyloxyimino-2-(2-aminothiazol-4-yl)acetamido]-3-(6,7-dihydroxy-2-isoquinolinio)methyl-3-cephem-4-carboxylate]
MIC (Ps.cepacia 23): < 0.006 µg/mL
MIC (S.aureus BB5703): 6.25 µg/mL (≈ 10.7 µM)
MIC (E.cloacae 963): 0.05 µg/mL (≈ 0.0858 µM)
MIC (S.marcescens No. 16-2): 1.56 µg/mL (≈ 2.68 µM)
MIC (M.morganii GN5407): 0.05 µg/mL (≈ 0.0858 µM)
MIC (E.cloacae Nek 39): 0.1 µg/mL (≈ 0.172 µM)
MIC (S.aureus JS1): 12.5 µg/mL (≈ 21.5 µM)
MIC (K.pneumoniae No. 42): 0.1 µg/mL (≈ 0.172 µM)
MIC (K.pneumoniae PCI-602): < 0.006 µg/mL
MIC (Ps.aeruginosa AKR17): 100 µg/mL (≈ 172 µM)
MIC (E.coli NIHJ JC2): 0.1 µg/mL (≈ 0.172 µM)
MIC (A.calcoaceticus No. 4): 0.2 µg/mL (≈ 0.343 µM)
MIC (E.coli CSH2 (RK1)): 0.0125 µg/mL (≈ 0.0215 µM)
MIC (Ps.aeruginosa AK 109): 0.78 µg/mL (≈ 1.34 µM)
MIC (C.freundii GN346): 50 µg/mL (≈ 85.8 µM)
MIC (E.coli CSH(RE45)): 0.025 µg/mL (≈ 0.0429 µM)
MIC (S.aureus 209P NIHJ-JC1): 0.78 µg/mL (≈ 1.34 µM)
MIC (K.oxytoca GN10650; K.oxytoca GN10650 (β-Lactamase-producing strain), Mueller Hinton agar, inoculum 10⁶ CFU/ml, 37°C, 16 hours): 3.12 µg/mL (≈ 5.36 µM)
MIC (P.vulgaris HX-19): < 0.006 µg/mL
MIC (Ps.aeruginosa IFO3445): 0.39 µg/mL (≈ 0.669 µM)
MIC (E.coli GN5482): 0.39 µg/mL (≈ 0.669 µM)
MIC (S.epidermidis IAM12012): 0.39 µg/mL (≈ 0.669 µM)
MIC (M.luteus ATCC9341): 0.2 µg/mL (≈ 0.343 µM)
MIC (S.marcescens IAM 1184; IAM1184, 16 h): 0.0125 µg/mL (≈ 0.0215 µM)
MIC (C.freundii GN346/16): 0.39 µg/mL (≈ 0.669 µM)
MIC (P.vulgaris No. 33; P.vulgaris No. 33 (β-Lactamase-producing strain), Mueller Hinton agar, inoculum 10⁶ CFU/ml, 37°C, 16 hours): 0.1 µg/mL (≈ 0.172 µM)
MIC (Ps.maltophilia GN 12873): > 100 µg/mL

Nc1nc(/C(=N/OC2(C(=O)O)CCCC2)C(=O)NC2C(=O)N3C(C(=O)[O-])=C(C[n+]4ccc5cc(O)c(O)cc5c4)CSC23)cs1 (stereo not drawn) [Ex. 5, 7-[2-(2-aminothiazol-4-yl)-2-(l-carboxy-l-cyclopentyloxyimino)acetamido]-3-(6,7-dihydroxy-2-isoquinolinio)methyl-3-cephem-4-carboxylate]
MIC (Ps.cepacia 23): < 0.006 µg/mL
MIC (S.aureus BB5703): 50 µg/mL (≈ 76.4 µM)
MIC (E.cloacae 963): 0.05 µg/mL (≈ 0.0764 µM)
MIC (S.marcescens No. 16-2): 0.1 µg/mL (≈ 0.153 µM)
MIC (M.morganii GN5407): 0.1 µg/mL (≈ 0.153 µM)
MIC (E.cloacae Nek 39): < 0.006 µg/mL
MIC (S.aureus JS1): 100 µg/mL (≈ 153 µM)
MIC (K.pneumoniae No. 42): 0.05 µg/mL (≈ 0.0764 µM)
MIC (K.pneumoniae PCI-602): < 0.006 µg/mL
MIC (Ps.aeruginosa AKR17): 0.39 µg/mL (≈ 0.596 µM)
MIC (E.coli NIHJ JC2): 0.05 µg/mL (≈ 0.0764 µM)
MIC (A.calcoaceticus No. 4): 0.1 µg/mL (≈ 0.153 µM)
MIC (E.coli CSH2 (RK1)): 0.0125 µg/mL (≈ 0.0191 µM)
MIC (Ps.aeruginosa AK 109): 0.39 µg/mL (≈ 0.596 µM)
MIC (C.freundii GN346): 50 µg/mL (≈ 76.4 µM)
MIC (E.coli CSH(RE45)): 0.78 µg/mL (≈ 1.19 µM)
MIC (S.aureus 209P NIHJ-JC1): 25 µg/mL (≈ 38.2 µM)
MIC (K.oxytoca GN10650; GN10650, 16 h): 0.0125 µg/mL (≈ 0.0191 µM)
MIC (P.vulgaris HX-19): < 0.006 µg/mL
MIC (Ps.aeruginosa IFO3445): 0.39 µg/mL (≈ 0.596 µM)
MIC (E.coli GN5482): 0.2 µg/mL (≈ 0.305 µM)
MIC (S.epidermidis IAM12012): 6.25 µg/mL (≈ 9.55 µM)
MIC (M.luteus ATCC9341): 3.12 µg/mL (≈ 4.77 µM)
MIC (S.marcescens IAM 1184; IAM1184, S.marcescens IAM 1184, Mueller Hinton agar, inoculum 10⁶ CFU/ml, 37°C, 16 hours): < 0.006 µg/mL
MIC (C.freundii GN346/16): 1.56 µg/mL (≈ 2.38 µM)
MIC (P.vulgaris No. 33; NO.33, 16 h): 0.0125 µg/mL (≈ 0.0191 µM)
MIC (Ps.maltophilia GN 12873): 1.56 µg/mL (≈ 2.38 µM)
